Results taken from patent US5914319A, “Antithrombotic agents” (Eli Lilly and Company, priority 1995, dated 1999).
Counter-ions that a name gives are not always drawn.

What was measured:
Format in all cases: biochemical
human thrombin = human thrombin (Homo sapiens, UniProt P00734); test: Inhibition of the amidase activity of thrombin (Kass); details: mean over a range of test compound concentrations; […]
Human plasma [1] = test: Human plasma anticoagulation, prothrombin time (PT); details: concentration required to double the PT, linear extrapolation
Description: (§1) Dog plasma and rat plasma is obtained from conscious mixed-breed hounds (either sex, Hazelton-LRE, Kalamazoo, Mich., U.S.A.) or from anesthetized male Sprague-Dawley rats (Harlan Sprague-Dawley, Inc., Indianapolis, Ind., U.S.A.) by venipuncture into 3.8 percent citrate. Fibrinogen is prepared from in-date ACD human blood as the fraction I-2 according to previous procedures and specifications. […] Human fibrinogen is also purchased as 98 percent pure/plasmin free from American Diagnostica, Greenwich, Conn. Coagulation reagents ACTIN, Thromboplastin, and Human plasma are from Baxter Healthcare Corp., Dade Division, Miami, Fla. Bovine thrombin from Parke-Davis ([…], Mich.) is used for coagulation assays in plasma.
(§2) Coagulation assay procedures are as previously described. […] A CoAScreener coagulation instrument (American LABor, Inc.) is used for all coagulation assay measurements. The prothrombin time (PT) is measured by adding 0.05 mL saline and 0.05 mL Thromboplastin-C reagent to 0.05 mL test plasma. The activated partial thromboplastin time (APTT) is measured by incubation of 0.05 mL test plasma with 0.05 mL Actin reagent for 120 seconds followed by 0.05 mL CaCl2 (0.02M). The thrombin time (TT) is measured by adding 0.05 mL saline and 0.05 mL thrombin (10 NIH units/mL) to 0.05 mL test plasma. The compounds of Formula I are added to human or animal plasma over a wide range of concentrations to determine prolongation effects on the APTT, PT, and TT assays. Linear extrapolations are performed to estimate the concentrations required to double the clotting time for each assay.

Human plasma [2] = test: Human plasma anticoagulation, thrombin time (TT); details: concentration required to double the thrombin time, linear extrapolation
Description: as §1, §2

Human plasma [3] = test: Human plasma anticoagulation, activated partial thromboplastin time (APTT); details: concentration required to double the APTT, linear extrapolation
Description: as §1, §2

Molecule | Kass × 10^6 (L/mole) Human Thrombin (human thrombin) | Human Plasma Anticoagulation 2× Clotting time (ng/mL) PT (Human plasma [1]) | Human Plasma Anticoagulation 2× Clotting time (ng/mL) TT (Human plasma [2]) | Human Plasma Anticoagulation 2× Clotting time (ng/mL) APTT (Human plasma [3])
EtSO2 -D-Phe-Pro-p-NHCH2 --C6 H4 C(=NH)NH2.HCl [Example 23] | 770 × 10^6 L/mole | 120 ng/mL | 7 ng/mL | 86 ng/mL
CCC(CC)C(=O)N[C@@H](CCC(=O)O)C(=O)N1CCC[C@H]1C(=O)NCc1ccc(C(=N)N)cc1 [Example 90, (C2 H5)2 CHCO-Glu-Pro-p-NHCH2 C6 H4 C(NH)NH2.HCl] | – | 14,600 ng/mL | 330 ng/mL | 14,500 ng/mL
N=C(N)c1ccc(CNC(=O)[C@@H]2CCCN2C(=O)[C@H](NCC(=O)O)C2CCCCC2)cc1 [Example 86, HOOCCH2 -D-Chg-Pro-p-NHCH2 C6 H4 C(NH)NH2.HCl] | – | 180 ng/mL | 4 ng/mL | 81 ng/mL
Cl.N=C(N)c1ccc(CCCNC(=O)C2CCCN2C(=O)C2NCCC3CCCCC32)cc1 (stereo not drawn) [Example 32, 1-Piq-Pro-p-NHCH2 CH2 CH2 --C6 H4 C(=NH)NH2.HCl] | – | 47,800 ng/mL | 3,100 ng/mL | 28,500 ng/mL
N=C(N)Nc1ccc(CCNC(=O)[C@@H]2CCCN2C(=O)[C@@H]2NCC[C@@H]3CCCC[C@@H]32)cc1 [Example 39, D-1-Piq-Pro-p-NHCH2 CH2 C6 H4 NHC(NH)NH2.2HCl] | – | 78,600 ng/mL | 5,300 ng/mL | 69,200 ng/mL
NCc1ccc(CNC(=O)[C@@H]2CCCN2C(=O)[C@@H](CC2CCCCC2)NCC(=O)O)cc1 [Example 78, HO2 CCH2 -D-Cha-Pro-4-NHCH2 C6 H4 CH2 NH2.HCl] | – | 760 ng/mL | 46 ng/mL | 430 ng/mL
Cl.N=C(N)C1=CNC(CNC(=O)[C@@H]2CCCN2C(=O)[C@@H](CC2CCCCC2)NCC(=O)O)CC1 (stereo partly drawn) [Example 68, HO2 CCH2 -D-Cha-Pro-2-NHCH2 -5-amidino-5,6-dehydro-piperidine.HCl] | – | 190 ng/mL | 4. ng/mL | 49 ng/mL
O=C(O)CN[C@H](CC1CCCCC1)C(=O)N1CCC[C@H]1C(=O)NCC1CCNCC1 [Example 53, HO2 CCH2 -D-Cha-Pro-4-NHCH2 -piperidine.HCl] | – | 34,500 ng/mL | 1,400 ng/mL | 33,800 ng/mL
N=C(N)Nc1cccc(CNC(=O)[C@@H]2CCCN2C(=O)[C@@H]2NCC[C@@H]3CCCC[C@@H]32)c1 [Example 40, D-1-Piq-Pro-m-NHCH2 C6 H4 NHC(NH)NH2.2HCl] | – | > 91,000 ng/mL | 35,100 ng/mL | > 91,000 ng/mL
N=C(N)c1ccc(CNC(=O)[C@@H]2CCCN2C(=O)[C@H]2C[C@H]3CCCC[C@H]3CN2)cc1 [Example 19, D-3-Piq-Pro-p-NHCH2 C6 H4 C(NH)NH2.3HCl] | – | 540 ng/mL | 58 ng/mL | 300 ng/mL
CCS(=O)(=O)N[C@H](Cc1ccccc1)C(=O)N1CCC[C@H]1C(=O)NCc1cccc(NC(=N)N)c1 [Example 36, EtSO2 -D-Phe-Pro-m-NHCH2 C6 H4 NHC(NH)NH2.HCl] | – | > 91,000 ng/mL | 7,700 ng/mL | > 91,000 ng/mL
NMI-D-Phe-Pro-Agm.HCl [Example 4] | 13. × 10^6 L/mole | – | 230 ng/mL | –
Cl.Nc1ccc(CNC(=O)[C@@H]2CCCN2C(=O)[C@@H](CC2CCCCC2)NCC(=O)O)cn1 [Example 74, HO2 CCH2 -D-Cha-Pro-5-NHCH2 -2-aminopyridine.HCl] | – | 350 ng/mL | 20 ng/mL | 420 ng/mL
NCC1CCC(CNC(=O)[C@@H]2CCCN2C(=O)[C@@H](CC2CCCCC2)NCC(=O)O)CC1 (stereo partly drawn) [Example 79, HO2 CCH2 -D-Cha-Pro-4-NHCH2 C6 H10 CH2 NH2.HCl] | – | 2,400 ng/mL | 140 ng/mL | 1,700 ng/mL
CCS(=O)(=O)N[C@H](Cc1ccccc1)C(=O)N1CCC[C@H]1C(=O)NCc1ccc(NC(=N)N)cc1 [Example 34, EtSO2 -D-Phe-Pro-p-NHCH2 C6 H4 NHC(NH)NH2.HCl] | – | 5,500 ng/mL | 530 ng/mL | 4,900 ng/mL
Cl.N=C(N)N1CCC(CNC(=O)[C@@H]2CCCN2C(=O)[C@@H](CC2CCCCC2)NCC(=O)O)CC1 [Example 56, HO2 CCH2 -D-Cha-Pro-4-NHCH2 -1-amidinopiperidine.HCl] | – | 200 ng/mL | 5 ng/mL | 160 ng/mL
CCS(=O)(=O)N[C@H](Cc1ccccc1)C(=O)N1CCC[C@H]1C(=O)NCCCc1ccc(C(=N)N)cc1 [Example 30, EtSO2 -D-Phe-Pro-p-NHCH2 CH2 CH2 --C6 H4 C(=NH)NH2.HCl] | – | 14,400 ng/mL | 1,000 ng/mL | 14,000 ng/mL
Cl.N=C(N)c1ccc(CNC(=O)[C@@H]2CCCN2C(=O)[C@@H](CC2CCCCC2)NCC(=O)O)c(F)c1 [Example 71, HO2 CCH2 -D-Cha-Pro-4-NHCH2 -3-F-benzamidine.HCl] | – | 150 ng/mL | 1 ng/mL | 89 ng/mL
N=C(N)c1ccc(CCNC(=O)[C@@H]2CCCN2C(=O)[C@@H]2NCC[C@@H]3CCCC[C@@H]32)cc1 [Example 28, 1-Piq-Pro-p-NHCH2 CH2 --C6 H4 C(=NH)NH2.2HCl] | – | 8,300 ng/mL | 520 ng/mL | 8,100 ng/mL
N=C(N)C1CCC(CNC(=O)[C@@H]2CCCN2C(=O)[C@@H](CC2CCCCC2)NCC(=O)O)NC1 (stereo partly drawn) [Example 67, HO2 CCH2 -D-Cha-Pro-2-NHCH2 -5-amidinopiperidine.HCl] | – | 1,300 ng/mL | 34. ng/mL | 1,800 ng/mL
Cl.N=C(N)c1ccc(CNC(=O)[C@@H]2CCCN2C(=O)[C@@H](CC2CCCCC2)NCC(=O)O)nn1 [Example 69, HO2 CCH2 -D-Cha-Pro-3-NHCH2 -6-amidinopyridazine.HCl] | – | 220 ng/mL | 5. ng/mL | 110 ng/mL
N=C(N)c1ccc(CNC(=O)[C@@H]2C[C@@H]3CCCC[C@@H]3N2C(=O)[C@@H](Cc2ccccc2)NCC(=O)O)cc1 (relative stereo) [Example 47, HOOCCH2 -D-Phe-cis-Ohi-p-NHCH2 C6 H4 C(NH)NH2.HCl] | – | 270 ng/mL | 12. ng/mL | 140 ng/mL
Cl.N=C(N)c1ccc(CNC(=O)C2CC3CCCCC3N2C(=O)C(CC2CCCCC2)NCC(=O)O)cc1 [Example 49, HOOCCH2 -D-Cha-cis-Ohi-p-NHCH2 C6 H4 C(NH)NH2.HCl] | – | 130 ng/mL | 5 ng/mL | 130 ng/mL
CS(=O)(=O)CC(=O)N[C@H](CC1CCCCC1)C(=O)N1CCC[C@H]1C(=O)NCc1ccc(C(=N)N)cc1 [Example 92, MeSO2 CH2 CO-D-Cha-Pro-p-NHCH2 C6 H4 C(NH)NH2.HCl] | – | 340 ng/mL | 8.9 ng/mL | 210 ng/mL
Cl.Cl.N=C(N)c1ccc(CNC(=O)[C@@H]2CCCN2C(=O)[C@H](N)CC2CCCCC2)cc1 [Example 51, D-Cha-Pro-p-NHCH2 C6 H4 C(NH)NH2.2HCl] | – | 110 ng/mL | 2 ng/mL | 48 ng/mL
